Experimental data published in patent publication US20230270763A1, “METHOD OF TREATING C[…] CANNABINOIDS AND DERIVATIVES” (PASCAL BIOSCIENCES INC., priority 2020, published 2023).
Where two headings read alike, the source gives them in different places.

Legend:
[1] = test system: SARS-CoV-2 Everett strain; assay: protection of Calu-3 cells from SARS-CoV-2 Everett strain-induced cytotoxicity (CellTiter Glo 2.0); conditions: read-out: IC50, protection of Calu-3 cells from SARS2-induced cytotoxicity
[2] = test system: SARS-CoV-2 Toronto strain; assay: cytopathic effect screening assay, SARS-CoV-2 Toronto strain in Vero E6 cells; format: cell-based; conditions: Severe acute respiratory syndrome coronavirus 2, Vero C1008; Vero E6 cells mixed with virus; CBD 20 nM to 10 μM; cell viability after 72 hours; FIG. 1; read-out: EC50, inhibition of cell death of virally-infected cells
Vero E6 cells = conditions: Vero E6 cultures not exposed to virus; 20 nM to 10 μM; 72 hours
SARS-CoV-2 = conditions: reported by Nguyen et al., March 2021; cited from earlier work
[3] = Severe acute respiratory syndrome coronavirus 2, Calu-3, 96 h

Row | Compound | IC50 ([1]; Calu-3, 96 hours, MOI 0.5 to 2.0, three-fold dilutions from 10 μM) | EC50 [2] | cytotoxicity over the concentration range tested (Vero E6 cells) | effect on SARS-CoV-2 replication (SARS-CoV-2) | IC50 [1, 3]
1 | CCCCCc1cc(O)c(C/C=C(\C)CCC=C(C)C)c(O)c1 [cannabigerol, Cannabigerol] | 0.12 µM | – | – | – | –
2 | C=C(C)[C@@H]1CCC(C)=C[C@H]1c1c(O)cc(CCCCC)cc1O [CBD, (−)-Cannabidiol] | – | 8.5 µM | No cytotoxicity | inhibits SARS-CoV-2 replication | 0.12 µM
3 | C=C(C)[C@@H]1CCC(C)=C[C@H]1c1c(O)cc(CCC)cc1O [cannabidivarin, (−)-Cannabidivarin] | – | – | – | – | 0.043 µM
